Data as given in patent EP0545103A1, “Insecticidal, acaricidal and molluscicidal 1-(substituted) thioalkylpyrroles” (priority 1991, dated 1993).

How the values were obtained:
Assay type in all cases: in vivo
[1] = system: Heliothis virescens, egg, tobacco budworm; assay: Tobacco budworm egg test, dipped cotton leaf and eggs; set-up: key: 0: no effect; 10-25% kill; 26-35% kill; 36-45% kill; 46-55% kill; 56-65% kill; 66-75% kill; 76-85% kill; 86-99% kill; 9: 100% kill; settings: mortality rating after 3 days
Procedure: (§1) Test solutions are prepared by dissolving the test compound in a 35% acetone in water mixture to give a concentration of 10,000 ppm. Subsequent dilutions are made with water as needed.
Heliothis virescens, egg, tobacco budworm
A young cotton leaf about 6-7cm in length is dipped in an agitated test suspension for about 3 seconds. Eggs are collected on a cheesecloth and the cloth is cut into 10-20mm squares, each containing approximately 50-100 eggs which are 6-30 hours old. The egg-containing cheesecloth square is similarly dipped in a test suspension and placed on a treated cotton leaf. The combination is dried in a hood and then placed in an 8 ounce Dixie® cup #2168-ST (240ml volume, 6cm tall, 9.5cm top diameter, 8.0cm bottom diameter) into which a 5cm length of damp dental wick has been placed. The cup is covered with a clear plastic lid and held for 3 days, after which mortality counts are made.
(§2) All of the above tests are rated according to the rating scale shown below.

[2] = system: Spodoptera eridania, 3rd instar larvae, southern armyworm; assay: Southern armyworm systemic uptake (stem systemic) test; set-up: key: 0: no effect; 10-25% kill; 26-35% kill; 36-45% kill; 46-55% kill; 56-65% kill; 66-75% kill; 76-85% kill; 86-99% kill; 9: 100% kill; settings: cut stem in emulsion 3 days
Text: Spodoptera eridania, systemic uptake, 3rd instar larvae, southern armyworm
Subsequent 10-fold dilutions are made with water as needed. Sieva limabean plants, with the primary leaves expanded to a length of 7-8 cm, are cut off at least 3 cm above the soil level to avoid contamination with soil bacteria which will cause decay of the stem during the test. The cut stem is placed in the test emulsion and wrapped with a bit of cotton to hold the stem off the bottom of the bottle and to limit evaporation. The treated stem is thus maintained for 3 days at 27° C to allow the test compound to be taken up into the plant. Following this, one leaf is removed from the plant and placed in a 100 x 10 mm petri dish with 10 southern armyworms as described above. Mortality counts and observations of feeding damage are made 3 and 5 days later.
as §2

[3] = system: Spodoptera eridania, 3rd instar larvae, southern armyworm; assay: Southern armyworm 3rd instar test, dipped limabean leaf; set-up: key: 0: no effect; 10-25% kill; 26-35% kill; 36-45% kill; 46-55% kill; 56-65% kill; 66-75% kill; 76-85% kill; 86-99% kill; 9: 100% kill; settings: for ARMYWORM Day 3: rating at 3 days; for ARMYWORM Day 5: rating at 5 days
Procedure: as §1
Spodoptera eridania, 3rd instar larvae, southern armyworm
A Sieva limabean leaf expanded to 7-8 cm in length is dipped in the test solution with agitation for 3 seconds and allowed to dry in a hood. The leaf is then placed in a 100 x 10 mm petri dish containing a damp filterpaper on the bottom and ten 3rd instar caterpillars. At 3 and 5 days, observations are made of mortality, reduced feeding, or any interference with normal molting.
as §2

[4] = system: Aphis fabae, mixed instar, bean aphid; assay: Bean aphid spray test on nasturtium; set-up: key: 0: no effect; 10-25% kill; 26-35% kill; 36-45% kill; 46-55% kill; 56-65% kill; 66-75% kill; 76-85% kill; 86-99% kill; 9: 100% kill; settings: 100 ppm
Procedure: as §1
Aphis fabae, mixed instar, bean aphid
Pots containing single nasturtium plants (Tropaeolum sp.) about 5 cm tall are infested with about 100-200 aphids one day prior to treatment. Each pot is sprayed with the test solution for 2 revolutions of a 4 rpm turntable in a hood, using a #154 DeVilbiss atomizer. The spray tip is held about 15 cm from the plant and the spray directed so as to give complete coverage of the plants and the aphids. The sprayed pots are set on their sides on white enamel trays and mortality estimates are made after 2 days.
as §2

[5] = system: Tetranychus urticae (OP-resistant strain), 2-spotted spider mite; assay: 2-spotted spider mite test, dipped infested limabean plants; set-up: key: 0: no effect; 10-25% kill; 26-35% kill; 36-45% kill; 46-55% kill; 56-65% kill; 66-75% kill; 76-85% kill; 86-99% kill; 9: 100% kill
Procedure: as §1
Tetranychus urticae (OP-resistant strain), 2-spotted spider mite
Sieva limabean plants with primary leaves expanded to 7-8 cm are selected and cut back to one plant per pot. A small piece is cut from an infested leaf taken from the main colony and placed on each leaf of the test plants. This is done about 2 hours before treatment to allow the mites to move over to the test plant and to lay eggs. The size of the cut, infested leaf is varied to obtain about 100 mites per leaf. At the time of test treatment, the piece of leaf used to transfer the mites is removed and discarded. The newly mite-infested plants are dipped in the test solution for 3 seconds with agitation and set in the hood to dry. After 2 days one leaf is removed and mortality counts are made. After 5 days, another leaf is removed and observations are made of mortality of the eggs and/or newly emerged nymphs.
as §2

[6] = system: Spodoptera eridania, 3rd instar larvae, southern armyworm; assay: Southern armyworm 7-day residual test; settings: R designates Residual: 7-day residual foliage, concentration not given; for ARMYWORM Day 3 R: rating at 3 days; for ARMYWORM Day 5 R: rating at 5 days
Procedure: as §1
Spodoptera eridania, 3rd instar larvae, southern armyworm, 7-day residual
The limabean leaves treated in the above test are maintained under high intensity lamps in the greenhouse for 7 days. These lamps duplicate the effects of a bright sunny day in June in New Jersey and are kept on for 14 hour day length. After 7 days, the foliage is sampled and assayed as in the above-said test.
as §2

[7] = system: Diabrotic undecimpunctata howardi, 3rd instar southern corn rootworm; assay: Southern corn rootworm soil test; set-up: key: 0: no effect; 10-25% kill; 26-35% kill; 36-45% kill; 46-55% kill; 56-65% kill; 66-75% kill; 76-85% kill; 86-99% kill; 9: 100% kill; settings: mortality rating after 6 days
Procedure: Diabrotic undecimpunctata howardi, 3rd instar southern corn rootworm
One cc of fine talc is placed in a 30 mL wide-mouth screw-top glass jar. One mL of the appropriate acetone test solution is pipetted onto the talc so as to provide 1.25 and 0.25 mg of active ingredient per jar. The jars are set under a gentle air flow until the acetone is evaporated. The dried talc is loosened, 1 cc of millet seed is added to serve as food for the insects and 25 mL of moist soil is added to each jar. The jar is capped and the contents thoroughly mixed on a Vortex Mixer. Following this, ten 3rd instar rootworms are added to each jar and the jars are loosely capped to allow air exchange for the larvae. The treatments are held for 6 days when mortality counts are made. Missing larvae are presumed dead, since they decompose rapidly and can not be found. The concentrations used in this test correspond approximately to 50 and 10 kg/ha, respectively.
as §2

[8] = system: Empoasca abrupta, adult, western potato leafhopper; assay: Western potato leafhopper systemic uptake test; set-up: key: 0: no effect; 10-25% kill; 26-35% kill; 36-45% kill; 46-55% kill; 56-65% kill; 66-75% kill; 76-85% kill; 86-99% kill; 9: 100% kill; settings: 100 ppm; systemic uptake; rating scale 0-9
Procedure: Empoasca abrupta, adult, western potato leafhopper Systemic Uptake
An emulsion containing 0.1 gm of the test material, 0.2 gm of Emulphor EL-620® emulsifier, 10 mL of acetone and 90 mL of water is prepared and diluted 10-fold with water to give a 100 ppm emulsion. Subsequent 10-fold dilutions are made with water as needed. Sieva limabean plants, with the primary leaves expanded to a length of 7-8 cm, are cut off at least 3 cm above the soil level to avoid contamination with soil bacteria which will cause decay of the stem during the test. The cut stem is placed in the test emulsion and wrapped with a bit of cotton to hold the stem off the bottom of the bottle and to limit evaporation. The treated stem is maintained for 3 days at 27°C to allow the test compound to be taken up into the plant. Following this, one leaf is removed from the plant and placed in a 100 x 10 mm petri dish containing a moist filter paper and about 10 adult leafhoppers as described above. Mortality counts are made after 2 days.
as §2

[9] = system: Empoasca abrupta, adult, western potato leafhopper; assay: Western potato leafhopper contact test, dipped limabean leaf; set-up: key: 0: no effect; 10-25% kill; 26-35% kill; 36-45% kill; 46-55% kill; 56-65% kill; 66-75% kill; 76-85% kill; 86-99% kill; 9: 100% kill; settings: mortality rating after 2 days
Procedure: as §1
Empoasca abrupta, adult, western potato leafhopper
A Sieva limabean leaf about 5 cm long is dipped in the test solution for 3 seconds with agitation and placed in a hood to dry. The treated leaf is placed in a 100 x 10 mm petri dish containing a moist filter paper and about 10 adult leafhoppers are added. After 2 days, mortality counts are made.
as §2

[10] = 300 ppm, adult mites, rating scale 0-9
[11] = 300 ppm, mite eggs, rating scale 0-9
[12] = 300 ppm, mite nymphs, rating scale 0-9

| Structure (SMILES) | TOBACCO BUDWORM Egg ([1]; 1000 ppm) | ARMYWORM Stem Sys [2] | ARMYWORM Day 3 ([3]; 10 ppm) | ARMYWORM Day 5 ([3]; 10 ppm) | ARMYWORM Day 3 ([3]; 100 ppm) | ARMYWORM Day 5 ([3]; 100 ppm) | ARMYWORM Day 3 ([3]; 1000 ppm) | ARMYWORM Day 5 ([3]; 1000 ppm) | APHIDS ([4]; rating scale 0-9) | OP-RESISTANT MITES Adult [5, 10] | OP-RESISTANT MITES Egg [5, 11] | OP-RESISTANT MITES Nymph [5, 12] | ARMYWORM Day 3 R [6] | ARMYWORM Day 5 R [6] | TOBACCO BUDWORM Egg ([1]; 100 ppm) | LEAFHOPPER Systemic [8] | SOUTHERN CORN ROOTWORM ([7]; 50 (ppm as headed)) | other results |
| --- | --- | --- | --- | --- | --- | --- | --- | --- | --- | --- | --- | --- | --- | --- | --- | --- | --- | --- |
| CCN=C(NCC)SCn1c(-c2ccc(Cl)cc2)c(C#N)c(Br)c1C(F)(F)F [Example 12] | 0 | 0 | 9 (100% kill) | 9 (100% kill) | 9 (100% kill) | 9 (100% kill) | 9 (100% kill) | 9 (100% kill) | 0 | 0 | 0 | 0 | 9 (100% kill) | 9 (100% kill) | – | – | – | SOUTHERN CORN ROOTWORM ([7]; 1 (ppm as headed)): 0 |
| N#Cc1c(Br)c(C(F)(F)F)n(CSC2=NCCCCN2)c1-c1ccc(Cl)cc1 [Example 11] | 5 (56-65% kill) | 9 (100% kill) | 9 (100% kill) | 9 (100% kill) | 9 (100% kill) | 9 (100% kill) | 9 (100% kill) | 9 (100% kill) | 0 | 0 | 0 | 0 | 9 (100% kill) | 9 (100% kill) | 3 (36-45% kill) | 9 (100% kill) | 0 | – |
| N#Cc1c(Br)c(C(F)(F)F)n(CSc2ncc[nH]2)c1-c1ccc(Cl)cc1 [Example 1] | 0 | 0 | 9 (100% kill) | 9 (100% kill) | 9 (100% kill) | 9 (100% kill) | 9 (100% kill) | 9 (100% kill) | 0 | 0 | 0 | 0 | 9 (100% kill) | 9 (100% kill) | 0 | 0 | 0 | – |
| N#Cc1c(Br)c(C(F)(F)F)n(CSC2=NCCCN2)c1-c1ccc(Cl)cc1 [Example 8] | 0 | 9 (100% kill) | 0 | – | 9 (100% kill) | – | 9 (100% kill) | – | – | – | – | – | 9 (100% kill) | 9 (100% kill) | 0 | – | 0 | LEAFHOPPER Contact ([9]; 10 ppm): 0; LEAFHOPPER Contact ([9]; 100 ppm): 8 (86-99% kill); APHIDS ([4]; spray, mortality rating after 2 days): 0; OP-RESISTANT MITES Adult ([5]; 10 ppm, mortality rating after 2 days): 0; OP-RESISTANT MITES Nymph ([5]; 10 ppm, rating after 5 days): 0; OP-RESISTANT MITES Adult ([5]; 100 ppm, mortality rating after 2 days): 9 (100% kill); OP-RESISTANT MITES Nymph ([5]; 100 ppm, rating after 5 days): 8 (86-99% kill); OP-RESISTANT MITES Adult ([5]; 300 ppm, mortality rating after 2 days): 9 (100% kill); OP-RESISTANT MITES Egg ([5]; 300 ppm, rating after 5 days): 0; OP-RESISTANT MITES Nymph ([5]; 300 ppm, rating after 5 days): 0 |
